Test results as given in ChEMBL document CHEMBL5385849, “Discovery of 1-hydroxy-2-methylquinolin-4(1H)-one derivatives as new cytochrome bd oxidase inhibitors for tuberculosis therapy” (Eur J Med Chem, 2023).

Tested on: Mycobacterium tuberculosis
Test: Inhibition of Mycobacterium tuberculosis harboring cydAB mutant inverted-membrane vesicle cytochrome bd oxidase assessed as reduction in oxygen consumption rate at 10 uM measured upto 4 days by Methylene blue dye based assay
Format: cell membranes
Conditions: time <= 4.0 day

Q: How did the inhibition turn out when `CC(C)=CCC/C(C)=C/CC/C(C)=C/Cc1c(C)[nH]c2ccccc2c1=O` [AURACHIN D] was run?
A: 55%

Q: `Cc1c(Cc2ccc(OC(F)(F)F)cc2)c(=O)c2ccccc2n1O` was tested. Which inhibition did it give?
A: 82%
